In EP0029617A1, “Use of tertiary heterocyclic amines as synergists in pesticides; derivatives of cycloamines” (priority 1979, dated 1981):
Where two headings read alike, the source gives them in different places.

How the values were obtained:
[1] = Acute oral toxicity, single oral application, 14 day LD50; parameters: species or system SPF-Wistar-Ratten; conditions: rat, in vivo, read-out: 14 Tage LD50
Description: Die erfindungsgemäßen Verbindungen haben nur eine geringe Toxizität. Es wurde die akute, orale Toxizität von Phenyl-N-piperidino-essigsäure-ethylester und 1-N-Undecyl-piperidin bestimmt. Die Tests wurden mit SPF-Wistar-Ratten durchgeführt und die Wirkstoffe einmal oral appliziert.

[2] = test system: Kornkäfer (sitophilus granarius L); test: whole plant or invertebrate; format: in vivo; conditions: for % Wirkung Substanz +Ripcord / % Wirkung Substanz +Talcord: 180 min; for mortality at 100 µg/mL / mortality at 50 µg/mL / mortality at 1000 µg/mL: Sitophilus granarius; for mortality at 100 µg/mL / mortality at 50 µg/mL / Wirksamkeit in % Substanz +Ripcord / Wirksamkeit in % Substanz +Talcord: 3 h; for mortality at 100 µg/mL: amine 0,1 mg/ml (as for Pyrethroid : Amin 1 : 10); for mortality at 100 µg/mL / mortality at 50 µg/mL: read-out: % Wirkung Substanz allein; for mortality at 50 µg/mL: amine 0,05 mg/ml (as for Pyrethroid : Amin 1 : 5); for mortality at 1000 µg/mL: read-out: Wirksamkeit in % Substanz allein; for Wirksamkeit in % Substanz +Ripcord: amine 1 mg/ml mixed 1 : 1 with Ripcord 0,01 mg/ml; for Wirksamkeit in % Substanz +Talcord: amine 1 mg/ml mixed 1 : 1 with Talcord 0,01 mg/ml
How it was run: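 Acetone solutions (2 ml) were dried as films in 15 cm Petri dishes and 25 grain weevils added per dish, with a filter inserted after 1 h. Dead beetles were counted at 3 h at 19–21 °C, and % mortality and the synergistic factor were derived.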

Drosophila melanogaster = test: whole plant or invertebrate; format: in vivo; conditions: for Wirksamkeit in % Substanz +Dimeti-lan: 1 ml 0,05%ige amine solution + 1 ml 0,0001%ige Dimetilan solution; for Wirksamkeit in % Substanz +Dimethoat: 1 ml 0,05%ige amine solution + 1 ml 0,005 %ige Dimethoat solution (Dimethoat : amine 1 : 10); for Faktor der Wirkungssteigerung bei Dime-methoat / Faktor der Wirkungssteigerung bei Dimi-tilan: calculated after subtracting the amine's own effect; for Faktor der Wirkungssteigerung bei Dimi-tilan: amine 0,05 % + Dimetilan 0,0001 %
Description: Die insektiziden Wirkungen von tertiären heterocyclischen Aminen und die synergistischen Eigenschaften mit dem Phosphorsäureester Dimethoat und dem Carbamat Dimetilan, getestet an Drosophila melanogaster.
Die Versuche wurden in Petrischalen von 10 cm Durchmesser ausgeführt. Es wurden zunächst die gerade noch wirksamen Konzentrationen von Dimethoat und Dimetilan bestimmt. Für Dimethoat wurde 0,005 % und für Dimetilan 0,0001 % als günstige Versuchskonzentration ermittelt. Die Aminkomponente wurde mit 1 ml 0,05%iger Lösung + 1 ml Aceton auf insektizide Wirkung getestet. Zur Bestimmung des Synergismus wurde 1 ml 0,05%ige Aminlösung + 1 ml 0,005.%ige Dimethoatlösung, bzw. + 1 ml 0,0001%ige Dimetilanlösung pro Petrischale eingesetzt. Alle Verdünnungen wurden mit Aceton als Lösungsmittel hergestellt.
In den Petrischalen wurden die Lösungen am Boden gut verteilt und 30 min lang antrocknen lassen. In jede Petrischale wurden 20 mit Kohlendioxid betäubte Drosophila eingezählt. Alle 5 min, insgesamt 12 mal, wurde die Anzahl der toten Drosophila ausgezählt und notiert. Die Zahlen wurden aufsummiert und im Verhältnis zur möglichen Zahl an toten Drosophila in % angegeben, wobei der Tot aller Drosophila innerhalb der ersten 5 min 100 % Wirkung entspricht. Jeder Versuch wurde mit 3 Wiederholungen durchgeführt. In Tabelle 1 sind die Mittelwerte der Ergebnisse zusammengestellt.
Zur Ermittlung des synergistischen Faktors wurden die Einzelwerte pro Zeiteinheit durch die für Dimethoat, bzw. Dimetilan für die jeweilige Zeiteinheit gefundenen Werte dividiert. Die Werte für jede Zeiteinheit wurden summiert und durch die Anzahl der Zeiteinheiten dividiert. Die Versuche wurden bei sonst stets gleichbleibenden Bedingungen bei Temperaturen von 20 - 22°C ausgeführt. Die Kontrollversuche zeigten bei Versuchsabschluß stets 0 % Mortalität. Hat die Substanz selbst eine insektizide Wirkung, so wurden die Wirkungsfaktoren für Dimethoat und Dimetilan nach Abzug des Substanzwertes berechnet und in der Tabelle aufgeführt.
Im Beispiel 1 war das Verhältnis von Insektizid und erfindungsgemäßem Amin 1 : 10 in den Gemischen mit Dimethoat. In der Tabelle 2 sind Verhältnisse von 1 : 1, 1 : 2 und 1 : 0,2 bei Versuchen mit Dimethoat aufgeführt, dabei wurde das Dimethoat immer in einer Konzentation von 0,005 % eingesetzt. Die Tabelle zeigt, daß auch bei diesen Verhältnissen noch eine gute synergistische Wirkung vorhanden ist, und es keineswegs einer großen überdosierung des Amins bedarf.

[3] = Pyrethroid : Amin 1 : 5, amine 0,05 mg/ml
[4] = Pyrethroid : Amin 1 : 10, amine 0,1 mg/ml
[5] = amine 1 mg/ml in Aceton mixed 1 : 1 with Aceton, 2 ml per dish, 25 weevils, dead counted after 3 h
[6] = amine 1 mg/ml + Ripcord 0,01 mg/ml
[7] = amine 1 mg/ml + Talcord 0,01 mg/ml
[8] = Drosophila melanogaster, 1 ml 0,05%ige amine solution + 1 ml Aceton per dish, 20 flies, dead counted every 5 min, 12 times, mean values, read-out: Wirksamkeit in % Substanz allein
[9] = amine 0,05 % + Dimethoat 0,005 %
[10] = Drosophila melanogaster, amine 0,005 %, read-out: Sub-stanz allein
[11] = amine 0,005 % + Dimethoat 0,005 %, Dimethoat : Amin 1 : 1
[12] = amine 0,005 %, Dimethoat : Amin 1 : 1
[13] = Drosophila melanogaster, amine 0,05 %, read-out: Sub-stanz allein
[14] = amine 0,05 % + Dimethoat 0,005 %, Dimethoat : Amin 1 : 10
[15] = amine 0,05 %, Dimethoat : Amin 1 : 10

## CCCCCCCCCCCN1CCCCC1 [N-1-Undecyl-piperidin]
[1]; männliche Ratten
  LD50 at 336 h: 593 mg/kg
[1]; weibliche Ratten
  LD50 at 336 h: 493 mg/kg
[2]; [3]
  % Wirkung Substanz +Ripcord: 90,8%
  % Wirkung Substanz +Talcord: 53,2%
[2]; [4]
  % Wirkung Substanz +Ripcord: 97,2%
  % Wirkung Substanz +Talcord: 60,0%
[2]
  mortality at 100 µg/mL: 0%
  mortality at 50 µg/mL: 0%

## C(=Cc1ccccc1)CN1CCCCC1 [N-Cinnamyl-piperidin]
[2]; [5]
  mortality at 1000 µg/mL: 0%
[2]; [6]
  Synergistischer Faktor bei Ripcord: 3,08
[2]; [7]
  Synergistischer Faktor bei Talcord: 7,01
[2]
  Wirksamkeit in % Substanz +Ripcord: 97,2%
  Wirksamkeit in % Substanz +Talcord: 68,0%
Drosophila melanogaster
  Wirksamkeit in % Substanz +Dimeti-lan: 82,5%
  Wirksamkeit in % Substanz +Dimethoat: 77,1%
  Faktor der Wirkungssteigerung bei Dimi-tilan: 6,48
Drosophila melanogaster; [8]
  mortality at 0.05 %: 66.3%
Drosophila melanogaster; [9]
  Faktor der Wirkungssteigerung bei Dime-methoat: 1,25

## CC(C)=CCCC(C)CCN1CCCCC1 (stereo not drawn) [N-Citronellyl-piperidin]
[2]; [5]
  mortality at 1000 µg/mL: 1.2%
[2]; [6]
  Synergistischer Faktor bei Ripcord: 2,46
[2]; [7]
  Synergistischer Faktor bei Talcord: 5,53
[2]
  Wirksamkeit in % Substanz +Ripcord: 78,8%
  Wirksamkeit in % Substanz +Talcord: 54,8%
Drosophila melanogaster; Drosophila melanogaster, amine 0,001 %, read-out: Sub-stanz allein
  mortality at 0.001 %: 0%
Drosophila melanogaster; [10]
  mortality at 0.005 %: 0%
Drosophila melanogaster; amine 0,001 % + Dimethoat 0,005 %, Dimethoat : Amin 1 : 0,2
  Substanz + Dime-thoat: 30,4%
Drosophila melanogaster; amine 0,001 %, Dimethoat : Amin 1 : 0,2
  Faktor der Wirkungs-steigerung: 3,53
Drosophila melanogaster; [11]
  Substanz + Dime-thoat: 32,9%
Drosophila melanogaster; [12]
  Faktor der Wirkungs-steigerung: 3,83

## CCCCCCCCCCN1CCCCCC1 [N-Decyl-hexamethylenimin]
[2]; [5]
  mortality at 1000 µg/mL: 69.2%
[2]; [6]
  Synergistischer Faktor bei Ripcord: 1,35
[2]
  Wirksamkeit in % Substanz +Ripcord: 93,2%
  Wirksamkeit in % Substanz +Talcord: 62,8%
Drosophila melanogaster
  Wirksamkeit in % Substanz +Dimeti-lan: 68,8%
  Wirksamkeit in % Substanz +Dimethoat: 65,0%
  Faktor der Wirkungssteigerung bei Dimi-tilan: 7,84
Drosophila melanogaster; [8]
  mortality at 0.05 %: 49.2%
Drosophila melanogaster; [9]
  Faktor der Wirkungssteigerung bei Dime-methoat: 1,84

## CCOC(=O)CC(C(=O)OCC)N1CCCCC1 (stereo not drawn) [N-Piperidino-bernstein-säure-di-ethylester]
[2]; [6]
  Synergistischer Faktor bei Ripcord: 3,08
[2]; [7]
  Synergistischer Faktor bei Talcord: 2,47
[2]; [5]
  Wirksamkeit in % Substanz allein: 0%
[2]
  Wirksamkeit in % Substanz +Ripcord: 97,2%
  Wirksamkeit in % Substanz +Talcord: 24,0%
Drosophila melanogaster
  Wirksamkeit in % Substanz +Dimeti-lan: 2,3%
  Wirksamkeit in % Substanz +Dimethoat: 38,8%
Drosophila melanogaster; 1 ml 0,05%ige amine solution + 1 ml Aceton per dish, 20 flies, dead counted every 5 min, 12 times, mean values
  Wirksamkeit in % Substanz allein: 0%
Drosophila melanogaster; [9]
  Faktor der Wirkungssteigerung bei Dime-methoat: 4,51

## c1cc2c(cc1CN1CCCCC1)OCO2 [N-Piperonyl-piperidin]
[2]; [3]
  % Wirkung Substanz +Ripcord: 84,0%
  % Wirkung Substanz +Talcord: 54,8%
[2]; [4]
  % Wirkung Substanz +Ripcord: 74,8%
  % Wirkung Substanz +Talcord: 24,0%
[2]
  mortality at 100 µg/mL: 0%
  mortality at 50 µg/mL: 0%
  Wirksamkeit in % Substanz +Ripcord: 90,8%
  Wirksamkeit in % Substanz +Talcord: 64,0%
[2]; [5]
  mortality at 1000 µg/mL: 0%
Drosophila melanogaster
  Wirksamkeit in % Substanz +Dimeti-lan: 52,1%
  Wirksamkeit in % Substanz +Dimethoat: 65,0%
Drosophila melanogaster; [8]
  mortality at 0.05 %: 51.7%
Drosophila melanogaster; [13]
  mortality at 0.05 %: 28.8%
Drosophila melanogaster; [10]
  mortality at 0.005 %: 0%
Drosophila melanogaster; [14]
  Substanz + Dime-thoat: 60,0%
Drosophila melanogaster; [9]
  Faktor der Wirkungssteigerung bei Dime-methoat: 1,55
Drosophila melanogaster; [15]
  Faktor der Wirkungs-steigerung: 3,63
Drosophila melanogaster; [11]
  Substanz + Dime-thoat: 26,3%
Drosophila melanogaster; [12]
  Faktor der Wirkungs-steigerung: 3,06

## c1cc2c(cc1CN1CCCC1)OCO2 [N-Piperonyl-pyrrolidin]
[2]; [5]
  mortality at 1000 µg/mL: 41.2%
[2]; [6]
  Synergistischer Faktor bei Ripcord: 1,87
[2]; [7]
  Synergistischer Faktor bei Talcord: 4,29
[2]
  Wirksamkeit in % Substanz +Ripcord: 100,0%
  Wirksamkeit in % Substanz +Talcord: 82,8%
Drosophila melanogaster
  Wirksamkeit in % Substanz +Dimeti-lan: 58,3%
  Wirksamkeit in % Substanz +Dimethoat: 60,0%
  Faktor der Wirkungssteigerung bei Dimi-tilan: 11,80
Drosophila melanogaster; [8]
  mortality at 0.05 %: 28.8%
Drosophila melanogaster; [9]
  Faktor der Wirkungssteigerung bei Dime-methoat: 3,63

## CCOC(=O)C(c1ccccc1)N1CCCCC1 (stereo not drawn) [Phenyl-N-piperidino-essigsäure-ethylester]
[1]; männliche Ratten
  LD50 at 336 h: 9750 mg/kg
[1]; weibliche Ratten
  LD50 at 336 h: 8170 mg/kg
[2]; Pyrethroid : Amin 1 : 10
  Synergistischer Faktor bei Ripcord: 3,14
  Synergistischer Faktor bei Talcord: 5,24
[2]; [4]
  % Wirkung Substanz +Ripcord: 98,8%
  % Wirkung Substanz +Talcord: 50,8%
[2]
  mortality at 100 µg/mL: 0%
Drosophila melanogaster
  Wirksamkeit in % Substanz +Dimeti-lan: 2,7%
  Wirksamkeit in % Substanz +Dimethoat: 22,2%
Drosophila melanogaster; [8]
  mortality at 0.05 %: 0%
Drosophila melanogaster; Drosophila melanogaster, amine 0,01 %, read-out: Sub-stanz allein
  mortality at 0.01 %: 0%
Drosophila melanogaster; [13]
  mortality at 0.05 %: 0%
Drosophila melanogaster; amine 0,01 % + Dimethoat 0,005 %, Dimethoat : Amin 1 : 2
  Substanz + Dime-thoat: 59,2%
Drosophila melanogaster; amine 0,01 %, Dimethoat : Amin 1 : 2
  Faktor der Wirkungs-steigerung: 6,88
Drosophila melanogaster; [14]
  Substanz + Dime-thoat: 22,1%
Drosophila melanogaster; [9]
  Faktor der Wirkungssteigerung bei Dime-methoat: 2,57
Drosophila melanogaster; [15]
  Faktor der Wirkungs-steigerung: 2,57
